Laboratory results: US10793522B2, “Sulfonamides as inhibitors of the uptake of extracellular citrate” (Boehringer Ingelheim International GmbH, priority 2016, dated 2020)

How the values were obtained:
hSLC13A5 [1] = biological target: T1, hSLC13A5 (Homo sapiens, UniProt Q86YT5); assay: HepG2/14C-citrate uptake assay; type: cell-based; design: HepG2 cells endogenously express hSLC13A5 transporter which is responsible for the uptake of citrate into these cells; endogenous in cells; host or cells: HepG2; settings: HepG2 cells endogenously expressing hSLC13A5; Cytostar-T; 14C-citrate ~1.8 μM; incubation over night
T1 sequence (Q86YT5 whole entry): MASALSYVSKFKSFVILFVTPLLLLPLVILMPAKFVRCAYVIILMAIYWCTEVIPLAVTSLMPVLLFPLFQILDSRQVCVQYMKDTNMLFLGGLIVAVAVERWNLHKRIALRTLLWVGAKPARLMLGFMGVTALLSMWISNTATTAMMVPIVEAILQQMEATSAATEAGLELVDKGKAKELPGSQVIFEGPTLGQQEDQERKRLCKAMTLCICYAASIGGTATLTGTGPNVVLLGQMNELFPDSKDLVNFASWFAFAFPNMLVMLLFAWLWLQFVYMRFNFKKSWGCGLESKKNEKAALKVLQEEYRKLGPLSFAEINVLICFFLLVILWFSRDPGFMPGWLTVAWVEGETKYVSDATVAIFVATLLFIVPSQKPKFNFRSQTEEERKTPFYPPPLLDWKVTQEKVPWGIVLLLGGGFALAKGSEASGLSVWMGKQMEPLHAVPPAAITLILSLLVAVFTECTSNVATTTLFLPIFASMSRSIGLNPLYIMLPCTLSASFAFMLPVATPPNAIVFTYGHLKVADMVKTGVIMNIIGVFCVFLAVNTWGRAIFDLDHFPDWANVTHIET
Text: (4) HepG2/^14C-Citrate Uptake Assay
HepG2 cells endogenously expressing hSLC13A5 were obtained from the Wistar Institute (Knowles et al., Science 1980, 209, 497-499).
HepG2 cells endogenously express hSLC13A5 transporter which is responsible for the uptake of citrate into these cells. […] The uptake of ^14C-citrate into HepG2 cells is monitored using the Cytostar-T assay. This assay format is based on the imported radioactive citrate brought into proximity with the scintillant contained within the base of the plate by virtue of the biological processes within the cells. The radioactive decay is converted to a light signal based on the integration of the scintillation matrix into the assay plate.
(§1) Method: ^14C-Citrate Uptake Assay
Starting from 10 mM stock solutions in 100% DMSO, compounds are diluted in pure DMSO using the appropriate dilution steps. Prior to the uptake assay, 400 μL assay medium+4.8 μL compound solution (or pure DMSO for non-inhibited control wells) are mixed (final DMSO concentration in the assay: 1% (v/v)) ^14C-citrate working solution (volumes required per 96-well):
The HepG2 cells are cultivated in cell culture medium (EMEM+10% fetal calf serum+1×NEAA and 10 mM L-Glutamin) For the assay, the medium of the confluent cultures is discarded and the cells are washed with DPBS w/o Mg^2+ w/o Ca^2+. The cells are detached by the addition of 1.0 mL 2× Trypsin in DPBS w/o Mg^2+ w/o Ca^2+ with 7.5 mM EDTA per 75 cm^2 culture flask for up to 3 minutes at 37° C. and resuspended in 10 mL cell culture medium. Following cell counting, 100,000 cells/well are seeded in a volume of 200 μL into Cytostar-T Scintillating 96-well microplates. After overnight incubation in a humid cell culture incubator at 37° C., 5% CO2, the cell culture medium is carefully aspirated and the cells are incubated with 200 μL prewarmed (37° C.) assay medium (50% DMEM+50% Ham's F-12+15 mM HEPES (pH 7.4) (medium contains 15.5 m M D(+)-glucose) per well for at least 1 h prior to the experiment.
Immediately prior to uptake assay, the assay medium is carefully removed and 100 μL test compound dilution is added to each well (n=3).
Following a 20 min incubation at 37° C. in the cell culture incubator, 20 μL of ^14C-citrate working solution is added to each well (final volume per well: 120 μL; final ^14C-citrate concentration ˜1.8 μM/well)).
After incubation over night at 37° C. in the cell culture incubator, the plates are sealed on the top using a transparent plastic foil and on the bottom using a white plastic foil. Following the sealing, the plate is placed into the TopCount NXT HTS and the signal is recorded.
(§2) The IC50 values of the compounds are calculated in IDBS XLfit by sigmoidal dose-response (variable slope).

hSLC13A5 [2] = biological target: T1, hSLC13A5; assay: Recombinant hSLC13A5/14C-citrate uptake assay; type: cell-based; settings: HEK293 Flp-In cells over-expressing hSLC13A5; WGA-PVT SPA beads; 14C-citrate approx. 2 μM; 4 h
Text: (5) Recombinant hSLC13A5/^14C-Citrate Uptake Assay
The human embryonic kidney 293 (HEK 293)-Flp-In cells (293Flp-In-hSLC13A5) over-expressing hSLC13A5 transporter were cloned: The originating plasmid pcDNA3.1-hSLC13A5 containing hSLC13A5 was synthesized at GeneArt. The cDNA for hSLC13A5 was taken from this plasmid by means of PCR amplification using primers with added HindIII (N-terminal) and XhoI (C-terminal) restriction sites and sub-cloned in frame into pcDNA5/FRT from Invitrogen using the respective restriction enzymes. HEK293 Flp-In cells from Invitrogen were stably co-transfected using the pcDNA/FRT-hSLC13A5 plasmid as well as the pOG44 plasmid.
HEK 293-Flp-In cells are used that stably over-express hSLC13A5 transporter which is responsible for the uptake of citrate into these cells.
The uptake of ^14C-citrate into the 293Flp-In-hSLC13A5 cells is monitored using the WGA-PVT SPA (wheat germ agglutinin-polyvinyltoluene scintillation proximity assay) beads that bind to the 293Flp-In cells due to their WGA-PVT surface. This assay format is based on the imported radioactive citrate brought into proximity with the SPA beads by virtue of the biological processes within the cells. The radioactive decay is converted into a light signal that can be measured using e.g. the TopCount plate reader.
as §1
Test Compound Dilutions (2Fold-Concentrated):
Starting from 10 mM stock solutions in 100% DMSO, compounds are diluted in pure DMSO using the appropriate dilution steps.
Prior to the uptake assay, 200 μL assay medium (lx HBSS (with Ca^2+ and Mg^2+, w/o Phenolred), contains 5.56 mM D(+)-Glucose)+19.44 mM D(+)-Glucose (final concentration of D(+)-Glucose is 25 mM))+4.8 μL compound solution (or pure DMSO for non-inhibited control wells) are mixed (final DMSO concentration in the assay: 1% (v/v)).
After preparing the 2fold-concentrated test compound dilutions, 50 μL are pipetted to each well of white OptiPlates-96 and incubated at 37° C. in an incubator.
^14C-Citrate Working Solution (Volumes Required Per 96-Well):
The 293Flp-In-hSLC13A5 cells are cultivated in cell culture medium (DMEM+10% fetal calf serum+100 μg/mL Hygromycin B). The medium of the confluent cultures is discarded and the cells are washed with DPBS (w/o Mg^2+ w/o Ca^2+). The cells are detached by the addition of 2.0 mL Accumax per 75 cm^2 culture flask for up to 3 minutes at 37° C. and resuspended in 10 mL assay medium. After cell counting, 50,000 cells/well are administered in a volume of 50 μL into the white OptiPlates-96 containing the respective test compound concentrations. Following a 20 min incubation at 37° C. in the cell culture incubator, 20 μL of ^14C-citrate working solution is added to each well (final volume per well: 120 μL; final ^14C-citrate concentration: approx. 2 μM/well).
After incubation for 4 h at 37° C. in a humid cell culture incubator and the addition of 30 μL of WGA-PVT SPA beads to each well (0.25 mg/well), the plates are sealed on the top using a transparent plastic foil. Incubate the plates for 1 h by room temperature and gentle shaking.
After incubation, the plate is placed into the TopCount NXT HTS and the signal is recorded.
The performance of the test compounds is calculated as follows:
Wells containing cells incubated with 1% DMSO only deliver values for the non-inhibited ^14C-citrate uptake into 293Flp-In-hSLC13A5 cells (100% CTL). Wells containing cells which have received 30 mM non-labelled potassium citrate solution in addition to the ^14C-citrate working solution deliver values for the background (0% CTL).
as §2

Compound | IC50 (hSLC13A5 [1]) | IC50 (hSLC13A5 [2])
O=C(NCc1nccs1)C1CCN(S(=O)(=O)c2cc(Cl)cc(Cl)c2)CC1 [(I-9)] | 246 nM | 303 nM
O=C(NCc1cccc(Cl)n1)C1CCN(S(=O)(=O)c2cc(Cl)cc(Cl)c2)CC1 [(I-26)] | 290 nM | 449 nM
Cc1cc(C)cc(S(=O)(=O)N2CCC(C(=O)NCc3nc(C)cs3)CC2)c1 [(I-41)] | 155 nM | 438 nM
COc1ncccc1CNC(=O)C1CCN(S(=O)(=O)c2cc(Br)cc(Br)c2)CC1 [(I-33)] | 182 nM | 275 nM

These reach a lower IC50 (hSLC13A5 [1]). Values come first.

IC50 (hSLC13A5 [1]) | IC50 (hSLC13A5 [2]) | Compound
130 nM | 138 nM | CCc1ccc(CNC(=O)C2CCN(S(=O)(=O)c3cc(Cl)cc(Cl)c3)CC2)nc1 [(I-17)]
14 nM | 66 nM | CCOc1cc(Cl)cc(S(=O)(=O)N2CCC(C(=O)NCc3ccc(F)cc3)CC2)c1 [(I-51)]
147 nM | 54 nM | O=C(NCc1ccc(F)cn1)C1CCN(S(=O)(=O)c2cc(Br)cc(Br)c2)CC1 [(I-35)]
27 nM | 98 nM | CCc1ccc(CNC(=O)C2CCN(S(=O)(=O)c3cc(C)cc(Br)c3)CC2)nc1 [(I-59)]
51 nM | 200 nM | CCOc1cc(Cl)cc(S(=O)(=O)N2CCC(C(=O)NCc3ccc(Cl)cn3)CC2)c1 [(I-52)]
66 nM | 41 nM | CCc1ccc(CNC(=O)C2CCN(S(=O)(=O)c3cc(Br)cc(Br)c3)CC2)nc1 [(I-31)]
